Measured values reported in article PMC3724985, “Isolation, biochemical characterization, and cloning of a bacteriocin from the poultry-associated Staphylococcus aureus strain CH-91” (Applied Microbiology and Biotechnology, 2012).

Tested on: StpC
Assay: Influence of StpC on biosynthesis and stability of BacCH91 in S. aureus CH-91 culture (E-64, HPLC)
Conditions: S. aureus CH-91 in TSB with or without E-64 (0.01, 0.1, 1.0 mM); samples at 5, 10, 24 h; HPLC peak area at 220 nm
Method: S. aureus CH-91 was cultured at 37 °C in TSB supplemented with the cysteine peptidase inhibitor E-64 (1-[N-[(L-3-trans-carboxyoxirane-2-carbonyl)-L-leucyl] amino]-4-guanidinobutane; Sigma) at final concentrations of 1.0, 0.1, and 0.01 mM. Aliquots were removed at 5, 10, and 24 h, and the bacteria-free supernatants were obtained by centrifugation.
To estimate the level of BacCH91, the collected supernatants were acidified with TFA (1 % final concentration, v/v) and filtered (0.45 μm filter). Aliquots (30 μl) were analyzed using HPLC (Kromasil C4 column, 250 × 4.6 mm; Supelco) and the same buffers as those used during the purification procedure. The column was flushed for 5 min following injection at a constant concentration of 34 % B. A linear gradient from 34 to 100 % B was then applied over 10 min at 1 ml/min. Under these conditions, BacCH91 was detected at 220 nm as a single peak eluting with a retention time of 14.6 min. The relative amount of bacteriocin was calculated as the area under the peak.

SMILES: C/C=C(\NC(=O)[C@H](CCCCN)NC(=O)CNC(=O)[C@@H]1CS[C@@H](C)[C@@H](NC(=O)[C@@H]2CSC[C@@H](NC(=O)/C(=C/C)NC(=O)[C@@H](N)[C@@H](C)CC)C(=O)N[C@@H](Cc3ccccc3)C(=O)N[C@@H]([C@@H](C)CC)C(=O)NCC(=O)N2)C(=O)N2CCC[C@H]2C(=O)NCC(=O)N1)C(=O)NCC(=O)N[C@@H]1CSC[C@@H]2NC(=O)[C@H](Cc3ccccc3)NC(=O)[C@@H](CS/C=C\NC2=O)NC(=O)[C@H](CC(N)=O)NC(=O)[C@H](Cc2ccccc2)NC1=O [BacCH91]
- effect of StpC on the stability of the lantibiotic in culture: does not affect the stability
